# In article PMC12383022, “Discovery of a Novel Antimicrobial Peptide from Paenibacillus sp. Na14 with Potent Activity Against Gram-Negative Bacteria and Genomic Insights into Its Biosynthetic Pathway” (Antibiotics, 2025):
# Like-named read-outs stand apart in the source and are kept apart here. Where no end group is shown, it is not given here.
# Columns and labels:
# E. coli = test system: E. coli; parameters: method as in PMID 36912655; conditions: cited from earlier work
# K. pneumoniae TISTR 1383 [1] = conditions: agar well diffusion vs untreated control, mean ± SD, three independent experiments
# Protocol: (§3) The purified Na14 AMP was prepared at a concentration of 10× MIC. Thermal stability was assessed by incubating the peptide at 30 °C, 50 °C, 70 °C, and 90 °C for 3 h. pH stability was evaluated by adjusting the peptide solution to pH 3, 5, 7, 9, and 11 using 1 N HCl or 1 N NaOH, followed by incubation at 37 °C for 3 h and subsequent neutralization to the original pH. […] The residual antimicrobial activity of each treatment condition was determined using an agar well diffusion assay against E. coli TISTR 887, P. aeruginosa TISTR 357, and K. pneumoniae TISTR 1383 to cross-validate efficacy across multiple pathogens. The untreated peptide served as a control. Statistical significance was analyzed using one-way ANOVA, with comparisons to the control group considered significant at p-value < 0.05. The results are presented as the percentage of residual antimicrobial activity.
# [2] = test system: E. coli TISTR 887, P. aeruginosa TISTR 357, K. pneumoniae TISTR 1383; assay: Time–kill kinetic assay, statement for all tested strains; format: cell-based; conditions: peptide at 1× MIC
# Protocol: (§1) The cultures were diluted 20-fold using CAMHB. […] The diluted bacterial suspension (10 μL) was mixed into each well before incubating the plates at 37 °C. At predetermined time points, 100 μL of either diluted or undiluted samples from each well were plated on MH agar and incubated at 37 °C for 24 h. Bacterial viability was assessed by colony counting and expressed as log CFU/mL [56].
# E. coli TISTR 887 [3] = format: cell-based, Escherichia coli; conditions: TISTR 887, 24 h
# Protocol: (§2) A bacterial suspension was prepared by adjusting its turbidity at OD 625 nm to 0.1 and subsequently made a 20-fold dilution using Cation-Adjusted Mueller–Hinton broth (CAHMB) as a diluent. […] The diluted cell suspension (10 µL) was added to each well, and the plates were incubated at 37 °C for 24 h. The CAMHB alone was used as a negative control, while CAMHB containing colistin or vancomycin served as a positive control.
# P. aeruginosa TISTR 357 [4] = assay: Time–kill assay; format: cell-based, Pseudomonas aeruginosa
# Protocol: as §1
# S. aureus TISTR 517 = assay: microbe, parasite or virus in culture; format: cell-based, Staphylococcus aureus; conditions: TISTR 517, 24 h
# Protocol: as §2
# MRSA Strain 2468 = assay: microbe, parasite or virus in culture; format: cell-based, Staphylococcus aureus; conditions: Strain 2468, 24 h
# Protocol: as §2
# E. coli TISTR 887 [5] = assay: Antimicrobial activity of purification fractions (arbitrary units, two-fold dilutions, agar well diffusion); format: cell-based, Escherichia coli; conditions: against E. coli TISTR 887
# Protocol: Single colonies of the Na14 isolate were resuspended in 0.9% NaCl solution, and the cell suspension was adjusted to an OD of 0.35 at 625 nm. A 2% aliquot of this suspension was inoculated into 196 mL of LB broth and incubated at 37 °C for 24 h. The CFS was collected by centrifugation at 10,000× g for 15 min at 4 °C. Bioactive compounds were then precipitated using stepwise ammonium sulfate precipitation at 25%, 50%, and 75% saturation levels. The active compounds were purified using cation exchange chromatography (CIEX) followed by reversed-phase chromatography (RPC), as described in our previous study. The purified compounds were concentrated using a refrigerated speed vacuum concentrator. The dried samples were reconstituted in deionized water and subjected to two-fold serial dilutions. An aliquot (100 µL) of each dilution was used to evaluate antimicrobial activity using the agar well diffusion method, employing E. coli TISTR 887 as the tested bacteria. The purification efficiency was assessed by calculating antimicrobial activity at each purification stage using the following equation [49]. Antimicrobial activity (arbitrary unit/mL; AU/mL)= 2^n × 1000/V where n represents the reciprocal of the highest two-fold dilution that produces a visible inhibition zone, and V denotes the volume of the sample in µL.
# P. aeruginosa TISTR 357 [6] = format: cell-based, Pseudomonas aeruginosa; conditions: TISTR 357, 24 h
# Protocol: as §2
# P. aeruginosa TISTR 357 [7] = conditions: agar well diffusion vs untreated control, mean ± SD, three independent experiments
# Protocol: as §3
# E. coli TISTR 887 [8] = assay: Time–kill assay; format: cell-based, Escherichia coli
# Protocol: as §1
# K. pneumoniae TISTR 1383 [9] = format: cell-based, Klebsiella pneumoniae; conditions: TISTR 1383, 24 h
# Protocol: as §2
# E. coli TISTR 887 [10] = conditions: agar well diffusion vs untreated control, mean ± SD, three independent experiments
# Protocol: as §3
# K. pneumoniae TISTR 1383 [11] = assay: Time–kill assay; format: cell-based, Klebsiella pneumoniae
# Protocol: as §1
# E. coli TISTR 887 [12] = assay: SDS-PAGE gel overlay inhibition assay; format: cell-based, Escherichia coli; conditions: 15% SDS-PAGE gel overlaid with soft agar containing E. coli TISTR 887; at the position of the peptide band
# Protocol: The peptides ([…]) were subjected to analysis using a 15% sodium dodecyl sulfate-polyacrylamide gel electrophoresis (SDS-PAGE). The gel was electrophoresed at a constant voltage of 100 V. One half of the gel was stained using Coomassie brilliant blue G-250 to visualize protein bands, with a molecular weight marker included to facilitate band position comparison. The remaining half was fixed in a solution containing 5% acetic acid and 25% methanol for 30 min, followed by a 3 h wash with distilled water. Subsequently, 18 mL of soft MH agar, including E. coli TISTR 887, was overlaid onto the gel to assess antimicrobial activity by observing inhibition zones after incubation at 37 °C for 24 h.
# [13] = peptide at 10× MIC adjusted to pH 3 (1 N HCl or 1 N NaOH), 37 °C, 3 h, then neutralized
# [14] = peptide at 10× MIC adjusted to pH 5, 37 °C, 3 h, then neutralized
# [15] = peptide at 10× MIC adjusted to pH 7, 37 °C, 3 h, then neutralized
# [16] = peptide at 10× MIC adjusted to pH 9, 37 °C, 3 h, then neutralized
# [17] = peptide at 10× MIC adjusted to pH 11, 37 °C, 3 h, then neutralized
# [18] = peptide at 10× MIC incubated at 30 °C for 3 h
# [19] = peptide at 10× MIC incubated at 50 °C for 3 h
# [20] = peptide at 10× MIC incubated at 70 °C for 3 h
# [21] = peptide at 10× MIC incubated at 90 °C for 3 h
# [22] = peptide at 0.5× MIC, growth resumed thereafter until 24 h
# [23] = peptide at 1× MIC, CAMHB, 37 °C, LOD 10 CFU/mL
# [24] = peptide at 2× MIC, CAMHB, 37 °C, LOD 10 CFU/mL
substance,measurement,setting,value
brevicidine,viability of E. coli at lower concentrations,E. coli; 0.5× to 2× MIC,remained viable
same,time to eradication of E. coli,E. coli; peptide at 4× MIC,1 h
LALLVVVKVLKYVV [Na14 peptide],"Residual Antimicrobial Activity, K. pneumoniae TISTR 1383",K. pneumoniae TISTR 1383 [1]; [13],100.43 ± 0.37%
same,"Residual Antimicrobial Activity, K. pneumoniae TISTR 1383",K. pneumoniae TISTR 1383 [1]; [14],99.14 ± 1.35%
same,"Residual Antimicrobial Activity, K. pneumoniae TISTR 1383",K. pneumoniae TISTR 1383 [1]; [15],98.06 ± 2.34%
same,"Residual Antimicrobial Activity, K. pneumoniae TISTR 1383",K. pneumoniae TISTR 1383 [1]; [16],97.62 ± 2.08%
same,"Residual Antimicrobial Activity, K. pneumoniae TISTR 1383",K. pneumoniae TISTR 1383 [1]; [17],99.57 ± 2.08%
same,"Residual Antimicrobial Activity, K. pneumoniae TISTR 1383",K. pneumoniae TISTR 1383 [1]; [18],100.89 ± 0.39%
same,"Residual Antimicrobial Activity, K. pneumoniae TISTR 1383",K. pneumoniae TISTR 1383 [1]; [19],98.21 ± 4.09%
same,"Residual Antimicrobial Activity, K. pneumoniae TISTR 1383",K. pneumoniae TISTR 1383 [1]; [20],98.66 ± 4.07%
same,"Residual Antimicrobial Activity, K. pneumoniae TISTR 1383",K. pneumoniae TISTR 1383 [1]; [21],99.11 ± 1.39%
same,reduction of bacterial counts,[2],more than 3 log units
same,"MBC, E. coli TISTR 887",E. coli TISTR 887 [3],2 µg/mL
same,"MIC, E. coli TISTR 887",E. coli TISTR 887 [3],2 µg/mL
same,"duration of temporary growth suppression, P. aeruginosa TISTR 357",P. aeruginosa TISTR 357 [4]; [22],3 h
same,"time at which bacteria were eliminated, P. aeruginosa TISTR 357",P. aeruginosa TISTR 357 [4]; [23],6 h
same,"time of complete eradication, P. aeruginosa TISTR 357",P. aeruginosa TISTR 357 [4]; [24],3 h
same,"MBC, S. aureus TISTR 517",S. aureus TISTR 517,>128 µg/mL
same,"MIC, S. aureus TISTR 517",S. aureus TISTR 517,>128 µg/mL
same,"MBC, MRSA strain 2468",MRSA Strain 2468,>128 µg/mL
same,"MIC, MRSA strain 2468",MRSA Strain 2468,>128 µg/mL
same,Specific Activity,E. coli TISTR 887 [5]; purification balance sheet,835.99 AU/mg
same,Arbitrary Activity,"E. coli TISTR 887 [5]; two-fold serial dilutions, 100 µL, agar well diffusion, AU/mL = 2^n × 1000/V",320 AU/mL
same,"MBC, P. aeruginosa TISTR 357",P. aeruginosa TISTR 357 [6],2 µg/mL
same,"MIC, P. aeruginosa TISTR 357",P. aeruginosa TISTR 357 [6],2 µg/mL
same,"Residual Antimicrobial Activity, P. aeruginosa TISTR 357",P. aeruginosa TISTR 357 [7]; [13],99.58 ± 0.74%
same,"Residual Antimicrobial Activity, P. aeruginosa TISTR 357",P. aeruginosa TISTR 357 [7]; [14],99.36 ± 1.69%
same,"Residual Antimicrobial Activity, P. aeruginosa TISTR 357",P. aeruginosa TISTR 357 [7]; [15],99.36 ± 3.18%
same,"Residual Antimicrobial Activity, P. aeruginosa TISTR 357",P. aeruginosa TISTR 357 [7]; [16],98.73 ± 2.30%
same,"Residual Antimicrobial Activity, P. aeruginosa TISTR 357",P. aeruginosa TISTR 357 [7]; [17],98.30 ± 2.24%
same,"Residual Antimicrobial Activity, P. aeruginosa TISTR 357",P. aeruginosa TISTR 357 [7]; [18],98.08 ± 1.11%
same,"Residual Antimicrobial Activity, P. aeruginosa TISTR 357",P. aeruginosa TISTR 357 [7]; [19],98.51 ± 0.37%
same,"Residual Antimicrobial Activity, P. aeruginosa TISTR 357",P. aeruginosa TISTR 357 [7]; [20],98.72 ± 0.64%
same,"Residual Antimicrobial Activity, P. aeruginosa TISTR 357",P. aeruginosa TISTR 357 [7]; [21],97.22 ± 1.62%
same,"duration of temporary growth suppression, E. coli TISTR 887",E. coli TISTR 887 [8]; [22],3 h
same,"time at which bacteria were eliminated, E. coli TISTR 887",E. coli TISTR 887 [8]; [23],12 h
same,"time of complete eradication, E. coli TISTR 887",E. coli TISTR 887 [8]; [24],6 h
same,"MBC, K. pneumoniae TISTR 1383",K. pneumoniae TISTR 1383 [9],4 µg/mL
same,"MIC, K. pneumoniae TISTR 1383",K. pneumoniae TISTR 1383 [9],4 µg/mL
same,"Residual Antimicrobial Activity, E. coli TISTR 887",E. coli TISTR 887 [10]; [13],100.64 ± 2.30%
same,"Residual Antimicrobial Activity, E. coli TISTR 887",E. coli TISTR 887 [10]; [14],100.85 ± 1.95%
same,"Residual Antimicrobial Activity, E. coli TISTR 887",E. coli TISTR 887 [10]; [15],99.36 ± 2.93%
same,"Residual Antimicrobial Activity, E. coli TISTR 887",E. coli TISTR 887 [10]; [16],98.72 ± 1.28%
same,"Residual Antimicrobial Activity, E. coli TISTR 887",E. coli TISTR 887 [10]; [17],98.51 ± 1.33%
same,"Residual Antimicrobial Activity, E. coli TISTR 887",E. coli TISTR 887 [10]; [18],98.24 ± 1.67%
same,"Residual Antimicrobial Activity, E. coli TISTR 887",E. coli TISTR 887 [10]; [19],99.12 ± 1.02%
same,"Residual Antimicrobial Activity, E. coli TISTR 887",E. coli TISTR 887 [10]; [20],98.89 ± 2.03%
same,"Residual Antimicrobial Activity, E. coli TISTR 887",E. coli TISTR 887 [10]; [21],98.46 ± 1.55%
same,"duration of growth inhibition, K. pneumoniae TISTR 1383",K. pneumoniae TISTR 1383 [11]; [22],up to 6 h
same,"time at which bacteria were eliminated, K. pneumoniae TISTR 1383",K. pneumoniae TISTR 1383 [11]; [23],9 h
same,"time of complete eradication, K. pneumoniae TISTR 1383",K. pneumoniae TISTR 1383 [11]; [24],6 h
same,gel overlay inhibition of E. coli TISTR 887,E. coli TISTR 887 [12],An inhibition zone was observed
